The subject of test [1] is Mus musculus. Put plainly: Antidepressant activity in ICR mouse model of chronic unpredictable mild stress assessed as reduction in oxidative stress by measuring reduction in MDA level in cerebral cortex at 12 mg/kg, ip administered once a day for 1 week post 8 week of chronic unpredictable mild stress and measured after 1 week by ELISA. Type of test: functional, organism-based. Particulars: time 2.0 weeks.

The test system of test [2] is Mus musculus. Put plainly: Antineuroinflammatory activity in ICR mouse model of chronic unpredictable mild stress assessed as reduction in IL-6 level in serum at 12 mg/kg, ip administered once a day for 1 week post 8 week of chronic unpredictable mild stress and measured after 1 week by ELISA. The class given is functional, organism-based. Particulars: time 2.0 weeks.

In test [3] the test system is Mus musculus. Nature of the test: Antineuroinflammatory activity in ICR mouse model of chronic unpredictable mild stress assessed as reduction in TNFalpha level in serum at 12 mg/kg, ip administered once a day for 1 week post 8 week of chronic unpredictable mild stress and measured after 1 week by ELISA. Type of test: functional, organism-based. The conditions noted are these: time 2.0 weeks.

Test [4] has as its system Mus musculus. Nature of the test: Antidepressant activity in ICR mouse model of chronic unpredictable mild stress assessed as downregulation of neuronal apoptosis by measuring increase in BDNF protein level in hippocampus at 12 mg/kg, ip administered once a day for 1 week post 8 week of chronic unpredictable mild stress and measured after 1 week by Western blot analysis. The class given is functional, organism-based. Particulars: time 2.0 weeks.

Test [5] concerns Mus musculus. Put plainly: Antidepressant activity in ICR mouse model of chronic unpredictable mild stress assessed as reduction in sphingosine-1-phosphate level in hippocampus at 12 mg/kg, ip administered once a day for 1 week post 8 week of chronic unpredictable mild stress and measured after 1 week by ELISA. Type of test: functional, organism-based. Particulars: time 2.0 weeks.

Test [6] relates to Mus musculus. Nature of the test: Antidepressant activity in ICR mouse model of chronic unpredictable mild stress assessed as reduction in sphingomyelin level in cerebral cortex at 12 mg/kg, ip administered once a day for 1 week post 8 week of chronic unpredictable mild stress and measured after 1 week by ELISA. Type of test: functional, organism-based. Particulars: time 2.0 weeks.

Test [7] concerns Mus musculus. Put plainly: Antineuroinflammatory activity in ICR mouse model of chronic unpredictable mild stress assessed as reduction in IL-1beta level in serum at 12 mg/kg, ip administered once a day for 1 week post 8 week of chronic unpredictable mild stress and measured after 1 week by ELISA. The class given is functional, organism-based. Particulars: time 2.0 weeks.
For test [8], the system named is Mus musculus. Put plainly: In vivo inhibition of ASM in ICR mouse model of chronic unpredictable mild stress assessed as increase in 5-HT uptake in hippocampus at 12 mg/kg, ip administered once a day for 1 week post 8 week of chronic unpredictable mild stress and measured after 1 week by ELISA. Particulars: time 2.0 weeks. Type of test: functional, organism-based.

The subject of test [9] is Mus musculus. Nature of the test: Antidepressant activity in ICR mouse model of chronic unpredictable mild stress assessed as reduction in sphingosine-1-phosphate level in cerebral cortex at 12 mg/kg, ip administered once a day for 1 week post 8 week of chronic unpredictable mild stress and measured after 1 week by ELISA. The class given is functional, organism-based. The conditions noted are these: time 2.0 weeks.

For test [10], the target named is T1, Sphingomyelin phosphodiesterase (Homo sapiens, UniProt P17405).
T1 sequence (P17405 whole entry): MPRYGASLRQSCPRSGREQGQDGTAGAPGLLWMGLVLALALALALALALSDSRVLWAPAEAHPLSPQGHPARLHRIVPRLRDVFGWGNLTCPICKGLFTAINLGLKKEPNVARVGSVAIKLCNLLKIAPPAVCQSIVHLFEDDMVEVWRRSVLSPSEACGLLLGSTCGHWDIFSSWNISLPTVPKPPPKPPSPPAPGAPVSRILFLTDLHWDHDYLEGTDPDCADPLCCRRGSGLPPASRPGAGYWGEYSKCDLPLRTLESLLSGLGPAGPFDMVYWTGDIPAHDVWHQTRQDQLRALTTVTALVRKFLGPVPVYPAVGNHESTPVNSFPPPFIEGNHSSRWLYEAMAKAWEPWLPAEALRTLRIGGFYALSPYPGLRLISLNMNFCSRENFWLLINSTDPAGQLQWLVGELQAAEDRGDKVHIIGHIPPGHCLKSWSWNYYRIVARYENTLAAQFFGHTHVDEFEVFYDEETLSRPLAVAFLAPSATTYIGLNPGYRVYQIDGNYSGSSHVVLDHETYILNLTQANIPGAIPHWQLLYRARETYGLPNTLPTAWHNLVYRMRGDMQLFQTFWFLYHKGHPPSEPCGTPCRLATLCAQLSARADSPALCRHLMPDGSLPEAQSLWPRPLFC
Put plainly: Inhibition of human recombinant ASM (His62 to Pro628 residues) using HMU-PC as substrate incubated for 2 hrs by fluorescence based analysis.

Calls of active or inactive are those of the source. No cut-off for these calls is given here.

As for `CNCCC(Oc1ccc(C(F)(F)F)cc1)c1ccccc1` (stereo not given), the result in [1], in [2], in [3], in test [4], in test [5] and in test [6] was Active. Besides, the result in test [7] and in [9] was Active. Besides, the inhibition entry in test [8] is “Active”.

As for `CCCCCCCCCCOc1cc(C(=O)NO)ccc1OC`, the IC50 in [10] worked out at 1200 nM.

(Values after ChEMBL document CHEMBL5512696, “Discovery of a Novel ASM Direct Inhibitor with a 1,5-Diphenyl-pyrazole Scaffold and Its Antidepressant Mechanism of Action” (J Med Chem, 2024).)
